# In ChEMBL document CHEMBL1201862, “PubChem BioAssay data set” (2004):
#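 All cell lines were grown in 96-well plates and treated with compound for 48 hours. GI50 is the concentration that inhibits growth by half.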 Activity calls are given as the source filed them. Rule as the data show it: active = GI50 up to about 1.1 µM and inactive = higher.
# How the values were obtained:
# Assay in all cases: growth of human tumour cells (NCI), 48 h
# [1] = system: MDA-MB-231
# [2] = system: OVCAR-8
# [3] = system: HCT-15
# [4] = system: SK-MEL-28
# [5] = system: NCI-H23
# [6] = system: UACC-257
# [7] = system: SNB-19
# [8] = system: U-251
# [9] = system: SK-MEL-5
# [10] = system: IGROV-1
# [11] = system: 786-0
# [12] = system: SK-OV-3
# [13] = system: KM12
# [14] = system: SR
# [15] = system: MOLT-4
# [16] = system: COLO 205
# [17] = system: Hs-578T
# [18] = system: SNB-75
# [19] = system: T47D
# [20] = system: SF-295
SMILES,GI50 [1],GI50 [2],GI50 [3],GI50 [4],GI50 [5],GI50 [6],GI50 [7],GI50 [8],GI50 [9],GI50 [10],GI50 [11],GI50 [12],GI50 [13],GI50 [14],GI50 [15],GI50 [16],GI50 [17],GI50 [18],GI50 [19],GI50 [20]
Cc1c(NC(=O)c2cc([N+](=O)[O-])cc([N+](=O)[O-])c2)c(=O)n(-c2ccccc2)n1C,> 100 µM (inactive),> 100 µM (inactive),83.9 µM,> 100 µM (inactive),> 100 µM (inactive),32.8 µM (inactive),> 100 µM (inactive),> 100 µM (inactive),> 100 µM (inactive),48.8 µM (inactive),> 100 µM (inactive),> 100 µM (inactive),82.2 µM (inactive),69.8 µM (inactive),> 100 µM (inactive),20.1 µM (inactive),> 100 µM (inactive),–,–,–
COc1ccc2c(c1)/C(=C\c1cccc(/C=C3/C(=O)Nc4ccc(OC)cc43)n1)C(=O)N2,–,1.17 µM (inactive),1.56 µM,–,0.925 µM (active),2.48 µM (inactive),0.805 µM (active),0.461 µM (active),0.834 µM (active),–,0.964 µM (active),2.02 µM (inactive),1.78 µM (inactive),–,0.261 µM (active),0.33 µM (active),4.35 µM (inactive),19.1 µM (inactive),0.381 µM (active),2.47 µM (inactive)
O=C(O)CCC(NC(=O)c1ccc(CNc2nc3cc(C(F)(F)F)ccc3nc2C(=O)O)cc1)C(=O)O (stereo unspecified),–,> 100 µM (inactive),> 100 µM,> 100 µM (inactive),> 100 µM (inactive),> 100 µM (inactive),> 100 µM (inactive),> 100 µM (inactive),–,> 100 µM (inactive),> 100 µM (inactive),> 100 µM (inactive),> 100 µM (inactive),> 100 µM (inactive),> 100 µM (inactive),> 100 µM (inactive),–,> 100 µM (inactive),> 100 µM (inactive),> 100 µM (inactive)
O=c1[nH]nc(-c2ccccc2)c2[nH]c(-c3ccccc3)cc12,–,> 100 µM (inactive),68.5 µM,–,> 100 µM (inactive),–,> 100 µM (inactive),–,–,> 100 µM (inactive),> 100 µM (inactive),> 100 µM (inactive),> 100 µM (inactive),38.8 µM (inactive),39 µM (inactive),> 100 µM (inactive),> 100 µM (inactive),45.8 µM (inactive),25.5 µM (inactive),> 100 µM (inactive)
O=C1NC(=O)/C(=C\c2ccncc2)N1,> 100 µM (inactive),> 100 µM (inactive),> 100 µM,> 100 µM (inactive),> 100 µM (inactive),> 100 µM (inactive),> 100 µM (inactive),> 100 µM (inactive),> 100 µM (inactive),> 100 µM (inactive),> 100 µM (inactive),> 100 µM (inactive),> 100 µM (inactive),–,> 100 µM (inactive),> 100 µM (inactive),–,> 100 µM (inactive),> 100 µM (inactive),> 100 µM (inactive)
Nc1ccccc1-n1c2c(c3ccccc3c1=O)C(=O)c1ccccc1-2,23.9 µM (inactive),14.5 µM (inactive),38 µM,36.5 µM (inactive),7.5 µM (inactive),35.9 µM (inactive),5 µM (inactive),15.2 µM (inactive),10.4 µM (inactive),9.68 µM (inactive),7.62 µM (inactive),6.98 µM (inactive),71.6 µM (inactive),–,4.25 µM (inactive),26.1 µM (inactive),–,11.8 µM (inactive),–,9.1 µM (inactive)
O=Cc1cn(CCCCCn2cc(C=O)c3ccccc32)c2ccccc12,54.6 µM (inactive),> 100 µM (inactive),> 100 µM,–,> 100 µM (inactive),> 100 µM (inactive),> 100 µM (inactive),67.9 µM (inactive),> 100 µM (inactive),> 100 µM (inactive),71.4 µM (inactive),> 100 µM (inactive),–,> 100 µM (inactive),> 100 µM (inactive),> 100 µM (inactive),25 µM (inactive),–,–,10.4 µM (inactive)
O=C(O)c1ccc(C=C2Sc3ccccc3S2)cc1,> 100 µM (inactive),> 100 µM (inactive),37.2 µM,–,> 100 µM (inactive),54.5 µM (inactive),73.8 µM (inactive),48.2 µM (inactive),51.6 µM (inactive),82.8 µM (inactive),98.2 µM (inactive),86.9 µM (inactive),46.7 µM (inactive),–,42.4 µM (inactive),92.7 µM (inactive),24 µM (inactive),–,45 µM (inactive),33.5 µM (inactive)
CN(/N=C/c1ccnc2ccccc12)c1ccc(Cl)cc1[N+](=O)[O-],> 100 µM (inactive),85.5 µM (inactive),> 100 µM,–,8.57 µM (inactive),9.59 µM (inactive),> 100 µM (inactive),> 100 µM (inactive),6.12 µM (inactive),> 100 µM (inactive),49.9 µM (inactive),> 100 µM (inactive),> 100 µM (inactive),2.64 µM (inactive),45.3 µM (inactive),> 100 µM (inactive),12.5 µM (inactive),26.6 µM (inactive),–,15.1 µM (inactive)
Cc1nc2c(O)cccc2c(=O)[nH]1,–,437 µM (inactive),270 µM,> 1000 µM (inactive),303 µM (inactive),555 µM (inactive),670 µM (inactive),670 µM (inactive),–,405 µM (inactive),> 1000 µM (inactive),348 µM (inactive),332 µM (inactive),114 µM (inactive),339 µM (inactive),–,573 µM (inactive),233 µM (inactive),–,351 µM (inactive)
N#Cc1c(-c2ccccc2)c(/C=N/c2ccc(F)cc2)c(=O)n2c1[nH]c1ccccc12,51.6 µM (inactive),34.2 µM (inactive),19.7 µM,37.1 µM (inactive),37 µM (inactive),28.5 µM (inactive),28.3 µM (inactive),46.7 µM (inactive),25.6 µM (inactive),25.4 µM (inactive),24.7 µM (inactive),36.3 µM (inactive),29.6 µM (inactive),–,–,29.8 µM (inactive),–,39 µM (inactive),27.7 µM (inactive),18.5 µM (inactive)
Cc1cc(Cl)ccc1NC(=O)C1C(=O)N(c2ccc(Cl)cc2C)C(=O)/C1=N\N (stereo unspecified),–,48.3 µM (inactive),34.8 µM,52.5 µM (inactive),36.9 µM (inactive),> 100 µM (inactive),38.9 µM (inactive),33 µM (inactive),30.5 µM (inactive),55.1 µM (inactive),81.3 µM (inactive),97.5 µM (inactive),25.4 µM (inactive),26.6 µM (inactive),27.9 µM (inactive),56.4 µM (inactive),–,42.6 µM (inactive),–,28.9 µM (inactive)
COc1cc2c(cc1O)C1C(O)C(O)C=C3CCN(C2)C31 (stereo unspecified),–,2.05 µM (inactive),3.61 µM,2.76 µM (inactive),2.13 µM (inactive),2.67 µM (inactive),1.39 µM (inactive),2.98 µM (inactive),1.46 µM (inactive),2.74 µM (inactive),2.39 µM (inactive),4.11 µM (inactive),2.05 µM (inactive),2.08 µM (inactive),3.15 µM (inactive),1.44 µM (inactive),–,2.65 µM (inactive),–,2.31 µM (inactive)
Nc1cnc2c(c1)c(=O)nc1n2CCS1,80 µM (inactive),> 100 µM (inactive),> 100 µM,> 100 µM (inactive),> 100 µM (inactive),> 100 µM (inactive),> 100 µM (inactive),> 100 µM (inactive),> 100 µM (inactive),–,> 100 µM (inactive),> 100 µM (inactive),55.1 µM (inactive),–,> 100 µM (inactive),> 100 µM (inactive),–,86.9 µM (inactive),–,> 100 µM (inactive)
Cc1cc(C)nc(NS(=O)(=O)c2ccc(NC(=O)NC(F)(F)F)cc2)n1,–,> 100 µM (inactive),> 100 µM,> 100 µM (inactive),> 100 µM (inactive),> 100 µM (inactive),> 100 µM (inactive),> 100 µM (inactive),> 100 µM (inactive),> 100 µM (inactive),> 100 µM (inactive),> 100 µM (inactive),–,> 100 µM (inactive),> 100 µM (inactive),> 100 µM (inactive),> 100 µM (inactive),> 100 µM (inactive),> 100 µM (inactive),–
C=C1C(=O)OC2/C=C(\C)C(OC(C)=O)C3OC3C(C)(O)CC(OC(=O)/C(C)=C/C)C12 (stereo unspecified),–,9.93 µM (inactive),12.8 µM,4.95 µM (inactive),12.8 µM (inactive),14.7 µM (inactive),18.7 µM (inactive),12.1 µM (inactive),13.7 µM (inactive),16.9 µM (inactive),4.73 µM (inactive),20.1 µM (inactive),14.7 µM (inactive),2.96 µM (inactive),5.05 µM (inactive),3.86 µM (inactive),–,21.9 µM (inactive),–,19.1 µM (inactive)
O=C(CCCn1ccnc1[N+](=O)[O-])NCCn1cnc([N+](=O)[O-])n1,–,> 100 µM (inactive),> 100 µM,> 100 µM (inactive),> 100 µM (inactive),> 100 µM (inactive),–,> 100 µM (inactive),> 100 µM (inactive),> 100 µM (inactive),> 100 µM (inactive),> 100 µM (inactive),> 100 µM (inactive),> 100 µM (inactive),> 100 µM (inactive),> 100 µM (inactive),> 100 µM (inactive),> 100 µM (inactive),> 100 µM (inactive),> 100 µM (inactive)
